Measured values published in publication PMC10663244 (Investigational New Drugs, 2023).
Where two headings read alike, the source gives them in different places.

Tests used:
advanced malignancies = conditions: Japanese population, cited from earlier work
[1] = Plasma pharmacokinetics of pemigatinib (LC–MS/MS, non-compartmental), phase I; format: in vivo, human (Chinese patients); conditions: for Tmax: read-out: tmax, median (min, max)
[2] = Western population, steady state, cited from earlier work
serum phosphate [3] = conditions: Western population; cited from earlier work
[4] = system: FGF/FGFR1-3 altered, advanced solid tumors; test: Antitumor activity per RECIST v1.1 by investigator, phase I; format: in vivo, human (Chinese patients); conditions: 12 patients
Method: Tumor response was assessed by investigator according to Response Evaluation Criteria in Solid Tumors (RECIST) v1.1 every 9 weeks after first dosing.
(§1) Tumor was assessed per RECIST v1.1 by investigator at baseline, and every 9 weeks after first dosing. […] Adverse events (AEs) were graded per CTCAE v5.0. […] Sponsor-defined clinically notable TEAEs included hyperphosphatemia, hypophosphatemia, nail toxicities, and serous retinal detachment.
(§2) All statistical analyses were conducted using SAS version 9.4 (or higher).
The Clopper-Pearson method was used to calculate the 95% confidence interval (CI) of ORR and DCR. The Kaplan–Meier method and the Brookmeyer and Crowley method were used to estimate PFS.

[5] = Safety: treatment-emergent adverse events (CTCAE v5.0), phase I; format: in vivo
Method: as §1, §2

[6] = any grade, Japanese patients; cited from earlier work
[7] = system: FGF/FGFR alterations and advanced malignancies; conditions: Western patients, cited from earlier work
serum phosphate [8] = test: Pharmacodynamics: serum phosphate level as PD marker for FGFR inhibition; format: in vivo, human (Chinese patients)
Method: Serum phosphate level was defined as the PD marker in the study for assessing FGFR inhibition. […] Serum phosphate levels were measured using phosphomolybdate UV method (measuring range: 0.31‑20.0 mg/dL) by the central laboratory (Q2 Solutions [Beijing] Co., Ltd.).
Serum samples were analyzed for the concentration of serum phosphate using phosphomolybdate UV method by the central laboratory (Q2 Solutions (Beijing) Co., Ltd.). The concentration of phosphomolybdate formed is directly proportional to the inorganic phosphate concentration and is measured photometrically. Phosphorus quantification was determined in human plasma on Roche/Hitachi cobas c systems. Measuring range was 0.10‑6.46 mmol/L (0.31‑20.0 mg/dL). Reagents: Phosphate (Inorganic) ver.2 (250 tests) Catalouge:03183793 122.

[9] = cited from earlier work
UC = system: UC; parameters: method as in PMID 31340094; conditions: 99 patients with UC; cited from earlier work
[10] = system: FGFR2 fusion/rearrangement-positive cholangiocarcinoma (CCA); parameters: method as in PMID 29182496; conditions: 108 previously-treated patients; cited from earlier work
[11] = 13.5 mg oral QD, C1D14 (steady state), N=12

CCN1C(=O)N(c2c(F)c(OC)cc(OC)c2F)Cc2cnc3[nH]c(CN4CCOCC4)cc3c21 [pemigatinib]
Objective response rate (advanced malignancies; Fight-102, 1/25): 4.0%
Disease control rate (advanced malignancies; Fight-102): 40.0%
CLss/F, geometric mean [1, 11]: 11.8 L/h
CLss/F, mean ± STD [1, 11]: 13.3 ± 7.2 L/h
Cmin,ss, geometric mean [1, 11]: 49.8 nM
tmax, median (min, max) [1, 11]: 1.99 (0.5, 23.2) h
AUCss,0-24, geomean ([1]; Chinese patients, steady state, 13.5 mg QD): 2.6369 µM·h
Cmax ([1]; Chinese patients, steady state, 13.5 mg QD, read-out: Cmax,ss, geomean): 215 nM
AUC(0-t) ([1]; human, plasma, po, 13.5 mg, 13.5 mg oral QD, C1D1, N=12, read-out: AUC0-24, geometric mean (converted)): 2.13 µM·h
AUC(0-t) ([1]; human, plasma, po, 13.5 mg, 13.5 mg oral QD, C1D1, N=12, read-out: AUC0-24, mean ± STD): 2.24 ± 0.861 µM·h
Cmax ([1]; human, plasma, po, 13.5 mg, 13.5 mg oral QD, C1D1, N=12, read-out: Cmax, geometric mean (converted)): 154 nM
Cmax ([1]; human, plasma, po, 13.5 mg, 13.5 mg oral QD, C1D1, N=12, read-out: Cmax, mean ± STD): 190 ± 108 nM
Tmax ([1]; human, plasma, po, 13.5 mg, 13.5 mg oral QD, C1D1, N=12): ~1.52 h
AUC ([1]; human, plasma, po, 13.5 mg, 13.5 mg oral QD, C1D14 (steady state), N=12, read-out: AUCss,0-24, geometric mean (converted)): 2.64 µM·h
AUC ([1]; human, plasma, po, 13.5 mg, 13.5 mg oral QD, C1D14 (steady state), N=12, read-out: AUCss,0-24, mean ± STD): 2.94 ± 1.44 µM·h
Cmax ([1]; human, plasma, po, 13.5 mg, 13.5 mg oral QD, C1D14 (steady state), N=12, read-out: Cmax,ss, geometric mean (converted)): 215 nM
Cmax ([1]; human, plasma, po, 13.5 mg, 13.5 mg oral QD, C1D14 (steady state), N=12, read-out: Cmax,ss, mean ± STD): 246 ± 115 nM
Vd/F ([1]; human, plasma, po, 13.5 mg, 13.5 mg oral QD, C1D14 (steady state), N=12, read-out: Vz/F, geometric mean (converted)): 170 L
Vd/F ([1]; human, plasma, po, 13.5 mg, 13.5 mg oral QD, C1D14 (steady state), N=12, read-out: Vz/F, mean ± STD): 179 ± 60.4 L
Tmax ([1]; human, plasma, po, 13.5 mg, 13.5 mg oral QD, C1D14 (steady state), N=12): ~1.99 h
half-life ([1]; human, plasma, po, 13.5 mg, 13.5 mg oral QD, C1D14 (steady state), N=12, read-out: t½ (elimination half-life), geometric mean (converted)): 11.3 h
half-life ([1]; human, plasma, po, 13.5 mg, 13.5 mg oral QD, C1D14 (steady state), N=12, read-out: t½, mean ± STD (converted)): 11.8 ± 4 h
AUCss,0-24, geomean [2]: 2.62 µM·h
Cmax ([2]; read-out: Cmax,ss, geomean): 236 nM
Serum phosphate concentration change from baseline, geomean (CV%) (serum phosphate [3]): 2.6 (40.4%) mg/dL
Objective response rate (ORR) ([4]; 13.5 mg QD 2-weeks-on/1-week-off, confirmed): 16.7%
Best overall confirmed response: Partial response [4]: 2 (16.7%) n (%)
Objective response rate ([4]; 95% CI […] - 48.4%): 2 (16.7%) n (%)
TEAEs leading to treatment interruption/discontinuation or death ([5]; 12 patients): No TEAEs led to treatment interruption/discontinuation or death
Anaemia ([5]; human, in vivo): 6 (50.0) n (%)
Blood alkaline phosphatase increased ([5]; human, in vivo): 0 n (%)
Blood bilirubin increased ([5]; human, in vivo): 0 n (%)
Blood lactate dehydrogenase increased ([5]; human, in vivo): 0 n (%)
Decreased appetite ([5]; human, in vivo): 6 (50.0) n (%)
Diarrhoea ([5]; human, in vivo): 0 n (%)
Gamma-glutamyltransferase increased ([5]; human, in vivo): 1 (8.3) n (%)
Hypoalbuminaemia ([5]; human, in vivo): 6 (50.0) n (%)
Hypochloraemia ([5]; human, in vivo): 0 n (%)
Incidence of anaemia ([5]; human, in vivo): 50.0%
Incidence of arthralgia ([5]; human, in vivo): 8.3%
Incidence of decreased appetite ([5]; human, in vivo): 50.0%
Incidence of gamma-glutamyltransferase increased ([5]; human, in vivo): 8.3%
Incidence of hypercalcaemia ([5]; human, in vivo): 8.3%
Incidence of hypoalbuminaemia ([5]; human, in vivo): 50.0%
Incidence of hypophosphatemia (clinically-notable TEAE) ([5]; human, in vivo): 25.0%
Incidence of lipase increased ([5]; human, in vivo): 8.3%
Incidence of nail discolouration (clinically-notable TEAE) ([5]; human, in vivo): 8.3%
Incidence of nail disorder (clinically-notable TEAE) ([5]; human, in vivo): 16.7%
Incidence of nail toxicity (clinically-notable TEAE) ([5]; human, in vivo): 16.7%
Incidence of proteinuria ([5]; human, in vivo): 8.3%
Low density lipoprotein increased ([5]; human, in vivo): 0 n (%)
Patients with dose reduction due to proteinuria ([5]; human, in vivo): 8.3%
Patients with grade ≥ 3 TEAEs ([5]; human, in vivo): 25.0%
Patients with grade ≥ 3 treatment-related AEs ([5]; human, in vivo): 16.7%
Proteinuria ([5]; human, in vivo): 1 (8.3) n (%)
Weight decreased ([5]; human, in vivo): 0 n (%)
Ocular toxicity (vision blurred of grade 1) ([5]; in vivo): only one patient experienced ocular toxicity
Serious TEAEs ([5]; in vivo): No serious TEAEs occurred
Incidence of hyperphosphataemia [6]: 76%
ORR for patients with FGFR mutations ([7]; Fight-101, 3/13): 23.1%
ORR for patients with FGFR fusions/rearrangements ([7]; Fight-101, 5/20): 25.0%
Disease control rate ([7]; Fight-101): 40.6%
Objective response rate ([7]; Fight-101): 9.4%
Serum phosphate level increase, mean (serum phosphate [8]; days 8 and 15 of cycle 1, 13.5 mg QD, 11 patients, CV% 31.3%): 2.25 mg/dL
Serum phosphate concentration change from baseline, geomean (CV%) (serum phosphate [8]; days 8 and 15 of cycle 1, Chinese patients): 2.15 (32.9%) mg/dL
Serum phosphate level after 1 week off (serum phosphate [8]; post 1 week off/intermission): decreased to baseline
Serum phosphorus during subsequent treatment (serum phosphate [8]; subsequent treatment after cycle 1): remained below or near the baseline levels
Incidence of hyperphosphataemia ([9]; any grade, Western patients): 75%
Incidence of hyperphosphataemia ([9]; grade ≥ 3, Western patients): 2.3%

COc1cc(OC)cc(N(CCNC(C)C)c2ccc3ncc(-c4cnn(C)c4)nc3c2)c1 [erdafitinib]
Overall objective response rate (ORR) (UC): 40%

CCN1CCN(c2ccc(Nc3cc(N(C)C(=O)Nc4c(Cl)c(OC)cc(OC)c4Cl)ncn3)cc2)CC1 [Infigratinib]
ORR [10]: 23.1%
